In US20250074911A1, “MACROCYCLIC BTK INHIBITORS” (Crossfire Oncology Holding B.V., priority 2021, published 2025):
Where “and” joins values, the source holds several entries; their conditions need not be identical. Equal entries are not always repeated.

Experiments:
[1] = tested on: wt-REC-1 mantle cell lymphoma cells; experiment: Cell proliferation assay wt-REC-1 (ATPlite, 72 hours); format: cell-based; details: 72 h; read-out: IC50 wt-REC-1
Method in brief: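 Luminescent viability read over 72 h, start-of-incubation signal recorded separately to separate growth from cell death. Percentage growth referenced to compound-free 0.3% DMSO wells; IC50 from 4-parameter logistic fit.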

REC-1 T474I cell lines = experiment: Cell proliferation assay REC-1 BTK T474I knock-in cells (ATPlite, 72 hours); format: cell-based; details: Homo sapiens, Rec1; 72 hours; read-out: IC50 REC-1 T474I
Method in brief: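 REC-1 cells carrying CRISPR knock-in mutant BTK, single-cell cloned and sequence-confirmed, were exposed to compound for 72 h and read by ATPlite luminescence. Percentage growth was calculated against the signal at the start of incubation and against untreated 0.3% DMSO wells as maximum growth.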

wt-BTK = wt-BTK (Homo sapiens (Human), UniProt Q06187); experiment: Binding kinetics measurements (Surface Plasmon Resonance) on wt-BTK; details: for Kd: binding affinity by Surface Plasmon Resonance (SPR); for Tau (h) wt-BTK (Act): target residence time, SPR
Method in brief: (§1)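 Kinetic constants came from double-referenced SPR sensorgrams of five ascending compound injections (3.16-316 nM, single cycle) over streptavidin-captured enzyme. Flow was 30 μl/min at 22° C with 1% DMSO. Duplicate ka, kd and KD were geometrically averaged.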

BTK C481S = BTK C481S (Homo sapiens (Human), UniProt Q06187, C481S); experiment: Binding kinetics measurements (Surface Plasmon Resonance) on BTK C481S; details: for Kd: binding affinity by Surface Plasmon Resonance (SPR); for Tau (h) BTK C418S (Act): target residence time for BTK C481S, SPR
Method in brief: as §1

BTK T316A = BTK T316A (Homo sapiens (Human), UniProt Q06187, T316A); experiment: Binding kinetics measurements (Surface Plasmon Resonance) on BTK T316A; details: for Kd: binding affinity by Surface Plasmon Resonance (SPR); for Tau (h) BTK T316A (Act): target residence time, SPR
Procedure: (§2) Binding kinetics measurements on wt-BTK, BTK […], BTK […], BTK […] and BTK […] (Surface Plasmon Resonance) Streptavidin-coated chips (Cat. No. BR100531), disposables and maintenance kits for Biacore were purchased from Cytiva (Eindhoven, The Netherlands). […] Remaining streptavidin was blocked with biocytin. Immobilization was performed at 4° C. Subsequent assay steps were conducted at 22° C. After changing buffer to Biacore buffer with 1% (v/v) dimethylsulfoxide (DMSO), a pre-run was performed for a period of at least 30 min at a flow rate of 30 μl/min to obtain a stable surface. The kinetic constants of the compounds were determined with single cycle kinetics with five consecutive injections with an increasing compound concentration with ranges of 3.16-316 nM. […] To circumvent problems of mass transport limitation, a flow rate of 30 μl/min was used. A blank run with the same conditions was performed before the compound was injected. The SPR sensorgrams were analyzed with Biacore Evaluation Software by using a method of double referencing. First the reference channel was subtracted from the channel containing immobilized protein. Subsequently, the reference curve obtained with buffer injections was subtracted. […] Compounds that bound according to an induced fit model were fitted with a two-state reaction model. The kinetic constants (ka, […], KD) of duplicates were geometrically averaged. […] Target residence for an induced fit model was calculated as described (Tummino and Copeland, 2008).

BTK T474I = BTK T474I (Homo sapiens (Human), UniProt Q06187, T474I); experiment: Binding kinetics measurements (Surface Plasmon Resonance) on BTK T474I; details: for Kd: binding affinity by Surface Plasmon Resonance (SPR); for Tau (h) BTK T474I (Act): target residence time, SPR
Method in brief: as §1

BTK T474S = BTK T474S (Homo sapiens (Human), UniProt Q06187, T474S); experiment: Binding kinetics measurements (Surface Plasmon Resonance) on BTK T474S; details: for residence time: SPR binding kinetics, BTK T474S, read-out: Tau (h) BTK T474S (Act), target residence time (converted); for Kd: binding affinity by Surface Plasmon Resonance (SPR)
Procedure: as §2

[2] = tested on: wt-TMD8 diffuse large B-cell lymphoma cells; experiment: Cell proliferation assay wt-TMD8 (ATPlite, 120 hours); format: cell-based; details: B-cell; wt-TMD8 cells, 120 hours, ATPlite; read-out: IC50 wt-TMD8
Method in brief: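 Readout is percentage growth from ATPlite 1Step luminescence after 5 days (120 h) compound treatment of wt-TMD8 lymphoma cells (1600/well, RPMI-1640 + 10% FBS). Time-zero signal separates growth inhibition from cell kill; 0.3% DMSO wells without compound define maximal growth.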

[3] = biological target: full-length wt-BTK enzyme (Homo sapiens (Human), UniProt Q06187); experiment: Biochemical kinase assay wt-BTK (IMAP)
Method in brief: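 Compound and enzyme (final 1.2 nM) were pre-incubated for 1 h at RT, after which the reaction was started with 4 μM ATP plus 50 nM fluorescein-MBP substrate peptide. After 2 h in the dark, the IMAP progressive binding reagent stopped the reaction, and phosphorylation was read by fluorescence polarization.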

[4] = biological target: full-length BTK C481S enzyme (Homo sapiens (Human), UniProt Q06187, C481S); experiment: Biochemical kinase assay BTK C481S (IMAP)
Method in brief: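 IC50 values come from IMAP fluorescence polarization after quenching with progressive binding solution. The reaction ran 2 h at room temperature in the dark with 1.2 nM full-length C481S enzyme, 7 μM ATP and 50 nM fluorescein-labelled MBP-derived peptide, following a 1 h dark pre-incubation of compound with enzyme.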

Sequence of BTK T474I (Q06187 whole entry T474I): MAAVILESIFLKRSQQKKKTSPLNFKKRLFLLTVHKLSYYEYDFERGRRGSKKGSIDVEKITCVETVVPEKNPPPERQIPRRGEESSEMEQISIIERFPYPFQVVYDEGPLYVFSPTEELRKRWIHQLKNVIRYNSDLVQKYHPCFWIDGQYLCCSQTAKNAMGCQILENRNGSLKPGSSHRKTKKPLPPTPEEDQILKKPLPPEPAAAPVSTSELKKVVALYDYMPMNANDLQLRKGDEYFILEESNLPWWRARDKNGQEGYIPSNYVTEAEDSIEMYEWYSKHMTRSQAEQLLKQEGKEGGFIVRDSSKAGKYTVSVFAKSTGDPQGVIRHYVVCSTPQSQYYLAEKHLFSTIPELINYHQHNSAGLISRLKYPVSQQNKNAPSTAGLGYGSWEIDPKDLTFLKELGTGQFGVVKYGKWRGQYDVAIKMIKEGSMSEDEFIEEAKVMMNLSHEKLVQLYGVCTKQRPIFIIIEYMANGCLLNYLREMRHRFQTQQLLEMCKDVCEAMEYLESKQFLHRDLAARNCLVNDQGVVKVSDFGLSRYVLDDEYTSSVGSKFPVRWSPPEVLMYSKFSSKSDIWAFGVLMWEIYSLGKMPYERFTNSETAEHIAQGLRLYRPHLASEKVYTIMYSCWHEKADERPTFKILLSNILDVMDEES
Sequence of BTK T474S (Q06187 whole entry T474S): as the sequence (Q06187 whole entry T474I) above, with I474S counted along it
Sequence of full-length wt-BTK enzyme (Q06187 whole entry): as the sequence (Q06187 whole entry T474I) above, with I474T counted along it
Sequence of wt-BTK (Q06187 whole entry): as the sequence (Q06187 whole entry T474I) above, with I474T counted along it
Sequence of full-length BTK C481S enzyme (Q06187 whole entry C481S): as the sequence (Q06187 whole entry T474I) above, with I474T, C481S counted along it
Sequence of BTK C481S (Q06187 whole entry C481S): as the sequence (Q06187 whole entry T474I) above, with I474T, C481S counted along it
Sequence of BTK T316A (Q06187 whole entry T316A): as the sequence (Q06187 whole entry T474I) above, with T316A, I474T counted along it

Row | SMILES | IC50 [1] [nM] | IC50 (REC-1 T474I cell lines) [nM] | Kd (wt-BTK) [nM] | Tau (h) wt-BTK (Act) (wt-BTK) [h] | Kd (BTK C481S) [nM] | Tau (h) BTK C418S (Act) (BTK C481S) [h] | Kd (BTK T316A) [nM] | Tau (h) BTK T316A (Act) (BTK T316A) [h] | Kd (BTK T474I) | residence time (BTK T474S) [h] | Kd (BTK T474S) [nM] | IC50 [2] [nM] | IC50 [3] [nM] | IC50 [4] [nM] | Tau (h) BTK T474I (Act) (BTK T474I) [h]
1 | CC1NC/C=C/c2cnc(N)c3c(-c4ccc(C(=O)Nc5cc(C(F)(F)F)ccn5)cc4)nn(c23)[C@@H]2CCC[C@H](C2)NC1=O (single isomer, unassigned) [Example 146] | < 100 | 100 to 500 | < 5 | 3.88 | < 5 | 5.76 | < 5 | 2.12 | 10 to 50 nM and < 5 nM | 2.69 | < 3 | < 100 | – | – | –
2 | Nc1ncc2c3c1c(-c1ccc(C(=O)Nc4cc(C(F)(F)F)ccn4)cc1)nn3[C@@H]1CCC[C@H](C1)NC(=O)COCC/C=C/2 [Example 6] | < 100 | 100 to 500 | < 5 | 6.80 | < 5 | 2.91 | < 5 | 2.28 | < 2 nM | 4.41 | < 3 | < 100 | < 5 | < 5 | –
3 | Nc1ncc2c3c1c(-c1ccc(C(=O)Nc4cc(C(F)(F)F)ccn4)cc1F)nn3[C@@H]1CCC[C@H](C1)NC(=O)CCC/C=C/2 [Example 7] | < 100 | 500 to 10000 | < 5 | 2.57 | < 5 | 4.50 | < 5 | 2.03 | < 2 nM | 4.98 | < 3 | < 100 | < 5 | < 5 | –
4 | Nc1ncc2c3c1c(-c1ccc(C(=O)Nc4cc(C(F)(F)F)ccn4)cc1F)nn3[C@@H]1CCC[C@H](C1)NC(=O)CNC/C=C/2 [Example 8] | 100 to 1000 | 500 to 10000 | < 5 | 2.25 | < 5 | 3.30 | < 5 | 1.30 | 10 to 50 nM and < 5 nM | 3.17 | < 3 | < 100 | < 5 | < 5 | –
5 | CN1C/C=C/c2cnc(N)c3c(-c4ccc(C(=O)Nc5cc(C(F)(F)F)ccn5)cc4)nn(c23)[C@@H]2CCC[C@H](C2)NC(=O)C1 [Example 9] | 100 to 1000 | 500 to 10000 | < 5 | 1.02 | < 5 | 2.60 | < 5 | – | 10 to 50 nM and < 5 nM | 1.53 | < 3 | < 100 | < 5 | < 5 | –
6 | CN1C/C=C/c2cnc(N)c3c(-c4ccc(C(=O)Nc5cc(C(F)(F)F)ccn5)cc4)nn(c23)[C@@H]2CCC[C@H](C2)NC(=O)CCC1 [Example 10] | < 100 | 500 to 10000 | < 5 | 6.77 | < 5 | 6.76 | < 5 | 1.76 | < 2 nM | 9.46 | < 3 | < 100 | < 5 | < 5 | –
7 | CN1C/C=C/c2cnc(N)c3c(-c4ccc(C(=O)Nc5cc(C(F)(F)F)ccn5)cc4)nn(c23)[C@@H]2CCC[C@H](C2)NC(=O)CC1 [Example 17] | < 100 | < 100 | < 5 | 5.24 | < 5 | 14.35 | < 5 | 3.60 | < 2 nM | 8.71 | < 3 | < 100 | < 5 | < 5 | 1.12
8 | CN1C/C=C/c2cnc(N)c3c(-c4ccc(C(=O)Nc5cc(C(F)(F)F)ccn5)cc4)nn(c23)[C@@H]2CCC[C@H](C2)NC(=O)CCCC1 [Example 20] | 100 to 1000 | 500 to 10000 | < 5 | 2.79 | < 5 | 1.05 | < 5 | 2.01 | < 2 nM | 2.75 | < 3 | < 100 | < 5 | < 5 | –
9 | Nc1ncc2c3c1c(-c1ccc(C(=O)Nc4cc(C(F)(F)F)ccn4)cc1)nn3[C@@H]1CCC[C@H](C1)NC(=O)CCNC/C=C/2 [Example 21] | < 100 | 100 to 500 | < 5 | 4.34 | < 5 | 7.53 | < 5 | 3.89 | < 2 nM | 3.59 | < 3 | < 100 | < 5 | < 5 | –
10 | Nc1ncc2c3c1c(-c1ccc(C(=O)Nc4ccccn4)cc1)nn3C1CCC[C@H](C1)NC(=O)CCCCC/C=C/2 [Example 24] | < 100 | < 100 | – | 4.78 | – | 10.68 | – | 2.66 | – | 3.19 | – | < 100 | < 5 | < 5 | 1.26
11 | Nc1ncc2c3c1c(-c1ccc(C(=O)Nc4cc(C(F)(F)F)ccn4)cc1)nn3[C@@H]1CCC[C@H](C1)NC(=O)CCOCC/C=C/2 [Example 26] | < 100 | < 100 | < 5 | 5.89 | < 5 | 6.65 | < 5 | 3.22 | < 2 nM | 1.79 | < 3 | < 100 | < 5 | < 5 | 5.95
12 | Nc1ncc2c3c1c(-c1ccc(C(=O)Nc4cc(C(F)(F)F)ccn4)cc1)nn3[C@@H]1CCC[C@H](C1)NC(=O)CCCOC/C=C/2 [Example 27] | < 100 | < 100 | < 5 | 5.05 | < 5 | 2.04 | < 5 | 3.37 | < 2 nM | 4.09 | < 3 | < 100 | < 5 | < 5 | 2.55
13 | C[C@@H]1CCn2nc(-c3ccc(C(=O)Nc4cc(C(F)(F)F)ccn4)cc3)c3c(N)ncc(c32)/C=C/CCCCC(=O)N1 [Example 54] | < 100 | 100 to 500 | < 5 | – | < 5 | – | < 5 | – | < 2 nM | 4.37 | < 3 | < 100 | – | – | –
